Calls of active or inactive are those of the source. The rule behind the calls is not given here.
Columns and labels:
Quadruplex DNA [1] = assay: Binding affinity to human G4-quadruplex 22AG DNA 5'- AGGGTTAGGGTTAGGGTTAGGG -3' at 20 uM by UV-Visible absorption spectroscopic analysis; type: nucleic-acid assay
Quadruplex DNA [2] = assay: Displacement of ThT from human G4-quadruplex Pu27 DNA 5'- TGGGGAGGGTGGGGAGGGTGGGGAAGG-3' incubated for 0.5 hrs by SpectraMax M2 microplate reader analysis; type: nucleic-acid assay
Quadruplex DNA [3] = assay: Binding affinity to human G4-quadruplex KRAS DNA 5'- AGGGCGGTGTGGGAAGAGGGAAGAGGGGGAGG-3' at 10 uM by CD spectra analysis; type: nucleic-acid assay
A-375 [4] = assay: Induction of apoptosis in human A-375 cells assessed assessed as late apoptotic cells at 5 uM incubated for 24 hrs by Annexin V-Elab Fluor 647/propidium iodide staining based flow cytometry (reference value: 6.31 %); type: functional
A-375 [5] = assay: Induction of cell cycle arrest in human A-375 cells assessed assessed as cell accumulation at G2/M phase at 5 uM incubated for 24 hrs by propidium iodide staining based flow cytometry (reference value: 15.70 %); type: functional
A-375 [6] = assay: Induction of cell cycle arrest in human A-375 cells assessed assessed as cell accumulation at G0/G1 phase at 5 uM incubated for 24 hrs by propidium iodide staining based flow cytometry (reference value: 54.25 %); type: functional
Quadruplex DNA [7] = assay: Binding affinity to human G4-quadruplex Oxy28 DNA 5'- GGGGTTTTGGGGTTTTGGGGTTTTGGGG -3' at 10 uM by CD spectra analysis; type: nucleic-acid assay
A-375 [8] = assay: Induction of apoptosis in human A-375 cells assessed assessed as viable cells at 5 uM incubated for 24 hrs by Annexin V-Elab Fluor 647/propidium iodide staining based flow cytometry (reference value: 91.1 %); type: functional; settings: read-out: Activity
Quadruplex DNA [9] = assay: Binding affinity to human G4-quadruplex Pu27 DNA 5'- TGGGGAGGGTGGGGAGGGTGGGGAAGG-3' at 20 uM by UV-Visible absorption spectroscopic analysis; type: nucleic-acid assay
Quadruplex DNA [10] = assay: Binding affinity to human G4-quadruplex VEGF DNA 5'- GGGCGGGCCGGGGGCGGG-3' at 20 uM by UV-Visible absorption spectroscopic analysis; type: nucleic-acid assay
A-375 [11] = assay: Inhibition of RNA synthesis in human A-375 cells at 5 uM incubated for 24 hrs by EU incorporation based flow cytometry analysis; type: functional, cell-based
Quadruplex DNA [12] = assay: Binding affinity to human G4-quadruplex Bcl2 DNA 5'- CGGGCGCGGGAGGAAGGGGGCGGGAGC-3' at 20 uM by UV-Visible absorption spectroscopic analysis; type: nucleic-acid assay
Quadruplex DNA [13] = assay: Displacement of ThT from human G4-quadruplex KRAS DNA 5'- AGGGCGGTGTGGGAAGAGGGAAGAGGGGGAGG-3' incubated for 0.5 hrs by SpectraMax M2 microplate reader analysis; type: nucleic-acid assay
A-375 [14] = assay: Induction of apoptosis in human A-375 cells assessed assessed as necrotic cells at 5 uM incubated for 24 hrs by Annexin V-Elab Fluor 647/propidium iodide staining based flow cytometry (reference value: 1.45 %); type: functional
Quadruplex DNA [15] = assay: Displacement of ThT from human G4-quadruplex c-kit2 DNA 5'- CGGGCGGGCGCGAGGGAGGGT-3' incubated for 0.5 hrs by SpectraMax M2 microplate reader analysis; type: nucleic-acid assay
dsDNA [16] = assay: Displacement of Hoechst 33342 from double stranded DNA ssab (unknown origin) incubated for 0.5 hrs by SpectraMax M2 microplate reader analysis; type: nucleic-acid assay
A-375 [17] = assay: Induction of apoptosis in human A-375 cells assessed assessed as early apoptotic cells at 5 uM incubated for 24 hrs by Annexin V-Elab Fluor 647/propidium iodide staining based flow cytometry (reference value: 1.14 %); type: functional
A-375 [18] = assay: Induction of cell cycle arrest in human A-375 cells assessed assessed as cell accumulation at S phase at 5 uM incubated for 24 hrs by propidium iodide staining based flow cytometry (reference value: 30.05 %); type: functional
Quadruplex DNA [19] = assay: Displacement of ThT from human G4-quadruplex VEGF DNA 5'- GGGCGGGCCGGGGGCGGG-3' incubated for 0.5 hrs by SpectraMax M2 microplate reader analysis; type: nucleic-acid assay
A-375 [20] = assay: Induction of DNA damage in human A-375 cells assessed as appearance of long DNA tails at 5 uM incubated for 24 hrs by comet assay; type: functional, cell-based
Quadruplex DNA [21] = assay: Displacement of ThT from human G4-quadruplex Bcl2 DNA 5'- CGGGCGCGGGAGGAAGGGGGCGGGAGC-3' incubated for 0.5 hrs by SpectraMax M2 microplate reader analysis; type: nucleic-acid assay
Quadruplex DNA [22] = assay: Binding affinity to human G4-quadruplex KRAS DNA 5'- AGGGCGGTGTGGGAAGAGGGAAGAGGGGGAGG-3' at 20 uM by UV-Visible absorption spectroscopic analysis; type: nucleic-acid assay
Quadruplex DNA [23] = assay: Displacement of ThT from human G4-quadruplex Oxy28 DNA 5'- GGGGTTTTGGGGTTTTGGGGTTTTGGGG -3' incubated for 0.5 hrs by SpectraMax M2 microplate reader analysis; type: nucleic-acid assay
Salmon testes DNA = assay: Displacement of Hoechst 33342 from salmon sperm DNA incubated for 0.5 hrs by SpectraMax M2 microplate reader analysis; type: nucleic-acid assay, Salmo salar
Calf thymus DNA = assay: Displacement of Hoechst 33342 from calf thymus DNA incubated for 0.5 hrs by SpectraMax M2 microplate reader analysis; type: nucleic-acid assay, Bos taurus
Quadruplex DNA [24] = assay: Displacement of ThT from human G4-quadruplex 22AG DNA 5'- AGGGTTAGGGTTAGGGTTAGGG -3' incubated for 0.5 hrs by SpectraMax M2 microplate reader analysis; type: nucleic-acid assay
Quadruplex DNA [25] = assay: Binding affinity to human G4-quadruplex c-kit2 DNA 5'- CGGGCGGGCGCGAGGGAGGGT-3' at 20 uM by UV-Visible absorption spectroscopic analysis; type: nucleic-acid assay
dsDNA [26] = assay: Binding affinity to double stranded DNA ssab (unknown origin) at 20 uM by UV-Visible absorption spectroscopic analysis; type: nucleic-acid assay
A-375 [27] = assay: Inhibition of DNA synthesis in human A-375 cells at 5 uM incubated for 24 hrs by Edu incorporation based flow cytometry analysis; type: functional, cell-based
Quadruplex DNA [28] = assay: Binding affinity to human G4-quadruplex Oxy28 DNA 5'- GGGGTTTTGGGGTTTTGGGGTTTTGGGG -3' at 20 uM by UV-Visible absorption spectroscopic analysis; type: nucleic-acid assay

Compound: COc1cc2c[n+](C)c3c4cc5c(cc4ccc3c2cc1OC)OCO5 [NITIDINE]
- Activity (Quadruplex DNA [1]): Active
- DC50 (Quadruplex DNA [2]): 990 nM
- Activity (Quadruplex DNA [3]): inactive
- Activity (A-375 [4]): 60.4%
- Activity (A-375 [5]): 29.3%
- Activity (A-375 [6]): 40.5%
- Activity (Quadruplex DNA [7]): inactive
- viability at 5 µM (A-375 [8]): 30.8%
- Activity (Quadruplex DNA [9]): Active
- Activity (Quadruplex DNA [10]): Active
- inhibition (A-375 [11]): Active
- Activity (Quadruplex DNA [12]): Active
- DC50 (Quadruplex DNA [13]): 9080 nM
- Activity (A-375 [14]): 6.7%
- DC50 (Quadruplex DNA [15]): 1050 nM
- DC50 (dsDNA [16]): 2970 nM
- Activity (A-375 [17]): 2.03%
- Activity (A-375 [18]): 30.21%
- DC50 (Quadruplex DNA [19]): 590 nM
- Activity (A-375 [20]): Active
- Kd (Quadruplex DNA [21]): 1520 nM
- Activity (Quadruplex DNA [22]): Active
- DC50 (Quadruplex DNA [23]): 1980 nM
- DC50 (Salmon testes DNA): 10800 nM
- DC50 (Calf thymus DNA): 14400 nM
- DC50 (Quadruplex DNA [24]): 15500 nM
- Activity (Quadruplex DNA [25]): Active
- Activity (dsDNA [26]): Active
- inhibition (A-375 [27]): Active
- Activity (Quadruplex DNA [28]): Active
